Source: patent publication US8017612B2, “Piperazine compound and use thereof as a HCV polymerase inhibitor” (priority 2006, dated 2011)

Legend:
[1] = molecular target: T1, HCV polymerase (NS5B) type 1a (Hepatitis C virus genotype 1a, UniProt P26664); test: Assay of enzyme (HCV polymerase) inhibitory activity, type 1a enzyme; type: biochemical, HCV type 1a (cloned from the blood of patients)
T1 construct: made in house; host or cells: Escherichia coli (by the 'similar method' of the 1b enzyme)
How it was run: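 His-tagged NS5B, C-terminal 47 residues deleted, type 1a at 1.5 μg/ml, with 5 μg/ml HCV 3′UTR substrate RNA, 50 μM ATP/GTP/CTP, 2 μM UTP plus [3H]UTP, pH 7.5 Tris, 5 mM MgCl2; 60 min at 25° C. TCA-precipitated RNA counted by scintillation; IC50 from radioactivity with vs. without compound.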

[2] = molecular target: T2, HCV polymerase (NS5B) type 1b (Hepatitis C virus genotype 1b, UniProt P26663); test: Assay of enzyme (HCV polymerase) inhibitory activity, type 1b enzyme; type: biochemical, HCV BK strain (type 1b)
T2 construct: a region encoding NS5B (J Virol 1991 March, 65(3), 1105-13, 544 amino acids after deletion of 47 amino acids on the C-terminal); 6xHis (C); made in house; host or cells: Escherichia coli
How it was run: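 His-tagged, C-terminally truncated NS5B (BK strain, 1b; 0.5 μg/ml) incubated with compound 60 min at 25 °C on 3′UTR-derived substrate RNA (5 μg/ml), 50 μM ATP/GTP/CTP, 2 μM UTP plus [3H]UTP, pH 7.5. Acid-precipitated RNA counted; IC50 from radioactivity with and without compound.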

[3] = HCV polymerase inhibitory activity IC50, 1a, type 1a enzyme
[4] = HCV polymerase inhibitory activity IC50, 1b, type 1b enzyme
[5] = HCV polymerase inhibitory activity (IC50), 1a, type 1a enzyme 1.5 μg/ml, 25° C., 60 min
[6] = HCV polymerase inhibitory activity (IC50), 1b, type 1b enzyme 0.5 μg/ml, 25° C., 60 min

Row | Compound | IC50 [1, 3] [nM] | IC50 [2, 4] [nM] | IC50 [1, 5] [nM] | IC50 [2, 6] [nM]
1 | O=C(NCc1ccc(OC(F)F)cc1)[C@H]1CN(c2nn3ccc(=O)nc3s2)CCN1S(=O)(=O)c1ccc(C(F)(F)F)cc1 [Example 1057, (R)-4-(7-oxo-7H-[1,3,4]thiadiazolo[3,2-a]pyrimidin-2-yl)-1-(4-trifluoromethyl-benzenesulfonyl)-piperazine-2-carboxylic acid 4-difluoromethoxy-benzylamide] | < 100 | < 100 |  | 
2 | CC(C)c1ccc(CNC(=O)[C@H]2CN(c3cc(C(=O)O)nn3C)CCN2S(=O)(=O)c2ccc(C(F)(F)F)cc2)cc1 [Example 439, 5-[(R)-3-(4-isopropyl-benzylcarbamoyl)-4-(4-trifluoromethyl-benzenesulfonyl)-piperazin-1-yl]-1-methyl-1H-pyrazole-3-carboxylic acid] |  |  | > 1000 | 100 to 1000
3 | COc1ccc(S(=O)(=O)N2CCN(C(C)=O)C[C@@H]2C(=O)NCc2ccc(C(C)C)cc2)cc1C#N [Example 239, (R)-4-acetyl-1-(3-cyano-4-methoxy-benzenesulfonyl)-piperazine-2-carboxylic acid 4-isopropyl-benzylamide] |  |  | > 1000 | 100 to 1000
4 | CC(C)c1ccc(CNC(=O)[C@H]2CN(c3nc(CCC(=O)O)cs3)CCN2S(=O)(=O)c2ccc(OC(F)(F)F)cc2)cc1 [Example 382, 3-{2-[(R)-3-(4-isopropyl-benzylcarbamoyl)-4-(4-trifluoromethoxy-benzenesulfonyl)-piperazin-1-yl]-thiazol-4-yl}-propionic acid] |  |  | 100 to 1000 | 100 to 1000
5 | Cc1nc(N2CCN(S(=O)(=O)c3ccc(OC(F)(F)F)cc3)[C@@H](C(=O)NCc3ccc(C(C)(C)C)cc3)C2)sc1-c1nnn[nH]1 [Example 583, (R)-4-[4-methyl-5-(1H-tetrazol-5-yl)-thiazol-2-yl]-1-(4-trifluoromethoxy-benzenesulfonyl)-piperazine-2-carboxylic acid 4-tert-butyl-benzylamide] |  |  | < 100 | < 100
6 | CC(C)c1ccc(CNC(=O)[C@H]2CN(C(=O)c3ccncc3)CCN2S(=O)(=O)c2ccc(C(F)(F)F)cc2)cc1 [Example 201, (R)-4-(pyridine-4-carbonyl)-1-(4-trifluoromethyl-benzenesulfonyl)-piperazine-2-carboxylic acid 4-isopropyl-benzylamide] |  |  | > 1000 | > 1000
7 | CCCc1ccc(CNC(=O)[C@H]2CN(c3cnc4cncc(C(=O)O)c4n3)CCN2S(=O)(=O)c2ccc(CC)cc2)cc1 [Example 815, 2-[(R)-4-(4-ethyl-benzenesulfonyl)-3-(4-propyl-benzylcarbamoyl)-piperazin-1-yl]-pyrido[3,4-b]pyrazine-8-carboxylic acid] | < 100 | < 100 |  | 
8 | CCC(F)(F)c1ccc(CNC(=O)[C@H]2CN(c3nc(NC(C)=O)ns3)CCN2S(=O)(=O)c2ccc(OC(F)(F)F)cc2)cc1 [Example 596, (R)-4-(3-acetylamino-[1,2,4]thiadiazol-5-yl)-1-(4-trifluoromethoxy-benzenesulfonyl)-piperazine-2-carboxylic acid 4-(1,1-difluoro-propyl)-benzylamide] |  |  | < 100 | < 100
9 | COC(=O)c1nc(Cl)c(N2CCN(S(=O)(=O)c3ccc(C(F)(F)F)cc3)[C@@H](C(=O)NCc3ccc(C(C)C)cc3)C2)nc1Br [Example 421, (R)-6′-bromo-3′-chloro-3-(4-isopropyl-benzylcarbamoyl)-4-(4-trifluoromethyl-benzenesulfonyl)-3,4,5,6-tetrahydro-2H-[1,2′]bipyrazinyl-5′-carboxylic acid methyl ester] |  |  | > 1000 | > 1000
10 | O=C(NCc1ccc(OC(F)(F)F)cc1)[C@H]1CN(c2nc3nc(C4CCC4)ncc3s2)CCN1S(=O)(=O)c1ccc(OC(F)(F)F)cc1 [Example 1069, (R)-4-(5-cyclobutyl-thiazolo[4,5-d]pyrimidin-2-yl)-1-(4-trifluoromethoxy-benzenesulfonyl)-piperazine-2-carboxylic acid 4-trifluoromethoxy-benzylamide] | < 100 | < 100 |  | 
11 | CCOC(=O)CN(C)c1ccc(S(=O)(=O)N2CCN(c3cnc4cnccc4n3)C[C@@H]2C(=O)NCc2ccc(OC(F)(F)F)cc2)cc1 [Example 764, (methyl-{4-[(R)-4-pyrido[3,4-b]pyrazin-2-yl-2-(4-trifluoromethoxy-benzylcarbamoyl)-piperazine-1-sulfonyl]-phenyl}-amino)-acetic acid ethyl ester] | < 100 | < 100 |  | 
12 | CC(C)(O)c1ncc2sc(N3CCN(S(=O)(=O)c4ccc(C(F)(F)F)cc4)[C@@H](C(=O)NCc4ccc(OC(F)(F)F)cc4)C3)nc2n1 [Example 1075, (R)-4-[5-(1-hydroxy-1-methyl-ethyl)-thiazolo[4,5-d]pyrimidin-2-yl]-1-(4-trifluoromethyl-benzenesulfonyl)-piperazine-2-carboxylic acid 4-trifluoromethoxy-benzylamide] | < 100 | < 100 |  | 
13 | CCC(F)(F)c1ccc(CNC(=O)[C@H]2CN(c3nc4nsnc4nc3O)CCN2S(=O)(=O)c2ccc(OC(F)(F)F)cc2)cc1 [Example 647, (R)-4-(6-hydroxy-[1,2,5]thiadiazolo[3,4-b]pyrazin-5-yl)-1-(4-trifluoromethoxy-benzenesulfonyl)-piperazine-2-carboxylic acid 4-(1,1-difluoro-propyl)-benzylamide] |  |  | > 1000 | 100 to 1000
14 | CC(C)c1ccc(S(=O)(=O)N2CCN(c3nc4c(s3)CCCC4)CC2C(=O)NCc2ccc(C(F)(F)F)cc2)cc1 (stereo not drawn) [Example 156, 1-(4-isopropyl-benzenesulfonyl)-4-(4,5,6,7-tetrahydro-benzothiazol-2-yl)-piperazine-2-carboxylic acid 4-trifluoromethyl-benzylamide] |  |  | > 1000 | > 1000
15 | O=C(NCc1nc2ccccc2o1)[C@H]1CN(c2cnc3cncnc3n2)CCN1S(=O)(=O)c1ccc(OC(F)(F)F)cc1 [Example 639, (R)-4-pteridin-7-yl-1-(4-trifluoromethoxy-benzenesulfonyl)-piperazine-2-carboxylic acid (benzoxazol-2-ylmethyl)-amide] |  |  | > 1000 | 100 to 1000
16 | CCC(F)(F)c1ccc(CNC(=O)[C@H]2CN(C(=O)Nc3nnc(C(=O)N4CCC(O)CC4)s3)CCN2S(=O)(=O)c2ccc(OC(F)(F)F)cc2)cc1 [Example 496, (R)-4-(4-trifluoromethoxy-benzenesulfonyl)-piperazine-1,3-dicarboxylic acid 3-[4-(1,1-difluoro-propyl)-benzylamide] 1-{[5-(4-hydroxy-piperidine-1-carbonyl)-[1,3,4]thiadiazol-2-yl]-amide}] |  |  | > 1000 | > 1000
17 | CC(=O)N1CCN(S(=O)(=O)c2ccc(OC(F)(F)F)c(CCC(=O)O)c2)[C@@H](C(=O)NCc2ccc(C(C)C)cc2)C1 [Example 324, 3-{5-[(R)-4-acetyl-2-(4-isopropyl-benzylcarbamoyl)-piperazine-1-sulfonyl]-2-trifluoromethoxy-phenyl}-propionic acid] |  |  | < 100 | 100 to 1000
18 | CC(=O)N1CCN(S(=O)(=O)c2ccc(C(C)C)cc2)[C@@H](C(=O)NCc2ccc(C(C)(C)C(=O)O)cc2)C1 [Example 231, 2-[4-({[(R)-4-acetyl-1-(4-isopropyl-benzenesulfonyl)-piperazine-2-carbonyl]-amino}-methyl)-phenyl]-2-methyl-propionic acid] |  |  | > 1000 | > 1000
